This note sets out measurements from patent US20240076667A1, “APPLICATION OF ANTISENSE OLIGONUCLEOTIDE TARGETING PBX1 PROMOTER REGION G-QUADRUPLEX IN PREPARATION OF MEDICINE FOR TREATING MELANOMA” (JILIN UNIVERSITY, priority 2022, published 2024).

“Also recorded” adds a separate entry of the source.

In one assay the test system is PBX1 dG1. Description: PBX1 dual luciferase reporter assay in HEK293T, A375 and B16-F10 cells. In kind it is cell-based. On the procedure: Dual luciferase reporter assay: for the PBX1 luciferase reporter gene assay, PBX1 luciferase reporter gene plasmid and pRL-TK plasmid are co-transfected into HEK293T, A375 and B16-F10 cells in the 96-well plate by Lipofectamine 2000 (Invitrogen, USA). 48 hours after transfection, cells are collected and analyzed using the Dual-Luciferase® Reporter Assay System (Promega, USA). The firefly activity is normalized to the activity of Renilla luciferase.
Given that G4s in the promoter and transcript are involved in the regulation of transcription and translation related processes, it is speculated that dG1 in the PBX1 promoter may regulate the transcription of PBX1, and rG1 in 5′UTR of the PBX1 transcript may regulate the transcription of PBX1. In addition, the luciferase reporter assay is first performed. The dG1 promoter sequence (designated as dG1-wt) and mutated dG1 promoter sequence (designated as dG1-mut) of PBX1 are cloned into pGL3 luciferase reporter vector. […] In addition, this embodiment further constructs an enhanced green fluorescent protein (EGFP) reporter gene system, to study the effect of rG1 on translation. The rG1 transcript sequence (designated as rG1-wt) and mutant rG1 transcript sequence (designated as rG1-mut) of PBX1 are fused to 5′UTR of EGFP, and the reporter gene vector is transfected into HEK293T cells. By confocal fluorescence experiments, the EGFP fluorescence intensity of rG1-WT is less than that of rG1-MUT, and PDS or TMPyP4 decreases the fluorescence intensity of rG1-WT in HEK293T cells (FIG. 3B). Finally, this embodiment studies the potential effect of PBX1 G4s on PBX1 expression of A375 and B16-F10 cells.

The test system of assay [1] is B16-F10 cells. Put plainly: Cell proliferation assay (CCK-8), B16-F10. Type of assay: cell-based, mouse. Particulars: dose-dependent manner. As for the experimental part: Cell proliferation assay: cell viability is determined by the cell counting kit-8 (CCK-8) according to the manufacturer's instructions (Abcam, UK). Cells (2000 cells per well) are incubated in the 96-well plate in triplicate and then added to each well at various time points at the final concentration of 10%, and incubation is continued at 37° C. After 60 minutes, the absorbance of the sample is measured at the wavelength of 450 nm. Data is analyzed using GraphPad Prism software.

The test system of the next assay is A375 cells. Put plainly: Cell scratch assay (migration), A375. In kind it is cell-based, human. Particulars: PDS (2 μM), TMPyP4 (5 μM), 24 h. As for the experimental part:
Cell scratch assay: the cells are seeded in 12-well plate and grown for 24 hours to 80% confluency. The bare region is created by the tip across the diameter of the dish. After being treated with PDS (2 μM) and TMPyP4 (5 μM) for 24 h, the cells are washed with PBS and photographed under the microscope (Leica, Germany) to evaluate cell migration. Six micrographs are taken for each person.

The test system of assay [2] is B16-F10 cells. Description: In vitro cell invasion experiment (Transwell), B16-F10. Type of assay: cell-based, mouse. Particulars: Transwell with Matrigel, 24 hours. As for the experimental part:
In vitro cell invasion experiment: in the Transwell invasion experiment, Matrigel is used as an invasive supraluminal membrane barrier (Corning, USA). The lower transwell chamber is filled with 2.5% serum containing DMEM medium. The cells are suspended at an upper chamber. After incubation for 24 hours, the filter is removed, and cells on the membrane are fixed by using methanol. Cells stained with 0.5% crystal violet infiltrate the surrounding matrix. The dye is washed with water and the cells are examined under the microscope (Leica, Germany). Six micrographs are taken for each person.

The next assay has as its system A375 melanoma cells. Description: In vivo tumor growth experiment, A375 xenograft in nude mice. As for the experimental part: In vivo tumor growth experiment: to evaluate the effect of PBX1 on growth of in vivo tumors, before inoculation, male nude mice of 6 weeks (BALB/C background) are randomly divided into designated groups (5 per group). 1×10^6 A375 melanoma cells are injected subcutaneously into the upper flank of the back of each mouse. After injection, the mice are administered with PDS drug for treatment for 21 days (once every two days), and after the mice are sacrificed, the tumor weight is measured.
(§1) Bioluminescent tumor cell tracking: in vivo whole-animal imaging, anesthetized mice are injected intraperitoneally with 3 mg of d-luciferin (MCE, USA). Luminescence data is collected on an IVIS system (Perkin Elmer, USA). For live tissue imaging, tissues are perfused with PBS, harvested, and incubated in PBS with 1 μg/ml-1d-luciferin. Data analysis is performed using an IVIS Image software package.

The subject of assay [3] is B16-F10 cells. Put plainly: In vivo tumor metastasis assay, B16-F10 tail vein injection. On the set-up: species or system mice. Particulars: B16-F10 tail vein; PDS 5 mg/kg twice a day, 16 consecutive days. On the procedure:
In vivo tumor metastasis assay: 2×10^5 B16-F10 cells are injected into the tail vein of tail vein tumor. According to solutions formulated by the NCI Animal Care and Use Committee, metastatic endpoints are determined for each experiment by maximal primary tumor burden and/or appearance of moribund mice in all treatment groups. PDS (5 mg/kg) is administered twice a day, for 16 consecutive days.
as §1

Assay [4] concerns patient-derived melanoma xenograft (PDX). Put plainly: PDX model of melanoma in NCG mice. In kind it is in vivo. Particulars: PDX; intravenous injection 20 mg/kg every two days for 21 days; vs PBX1 ASO scramble. On the procedure:
PDX model of melanoma: fresh tumor tissues are collected immediately after surgery, placed in RPMI 1640 medium containing penicillin/streptomycin (100 U/ml; 100 μg/ml), fungal zone (1 μg/ml) and Genta Mycin (50 μg/ml) (all from Gibco, USA) (4,5). According to the institutional review and the ethical guidelines for this study approved by the Ethics Committee of the Second Hospital of Jilin University, fresh tumor samples from patients suffering from melanoma are collected for transplantation with informed consent. The mice were kept and all procedures are performed under the approval and supervision of the Institutional Animal Care and Use Committee (IACUC) of the School of Public Health of Jilin University (Changchun, China). Necrotic tissues are excised before transplantation, and tumor tissues are minced to a size of 2×2×2 mm^3, and implanted subcutaneously in the flank of 6-week-old NCG male mice to generate first-generation (F1) PDX mice. Successfully transplanted tumor models are passaged and stored using standard methods. H&E staining is used to evaluate the morphology of patient tumor specimens and xenografts of established PDX models. Treatment with ASO Scr or ASO (intravenous injection, 20 mg/kg) is initiated when the tumor volume of the mice reached 220-280 mm^3. Tumor growth and body weight measurements are performed. Tumors are dissected at the end of treatment for further processing for RNA, protein and histological analysis.
Control:mG*mT*mC*mC*mA*mC*mA*mA*mA*mC*mA*mC*mA*mA*mC*mT*mC* mC*mT*mG*). […] This example also establishes short-term cultures of patient-derived melanoma xenograft (PDX)-derived tumor cells (PDCs) (FIG. 5D). […] To further expand the analysis, this embodiment establishes the PDX model of melanoma, and […] is administered intravenously (intravenous injection) every two days for 21 days.

For `NCCOc1cc(C(=O)Nc2cc(OCCN)c3ccccc3n2)nc(C(=O)Nc2cc(OCCN)c3ccccc3n2)c1` [PDS, Pyridostatin], in the assay with PBX1 dG1, the “luciferase activity of dG1-mut transfected cells” value is listed as “does not affect” and the “luciferase activity of dG1-wt transfected cells” value was “remarkably inhibits”. Moreover, in the assay on B16-F10 cells [1], the “cell viability (activity) measured by CCK8” value is “reduce; also recorded: remarkably reduces”. The migration entry in the assay with A375 cells is “inhibit”. In the assay with B16-F10 cells [2], the invasion entry is “inhibit”. In the assay with A375 melanoma cells (A375 subcutaneous, nude mice, treatment 21 days once every two days), the “growth of xenograft tumors” value is reported as “remarkably inhibits”. Also, the “expression of PBX1 in xenograft tumors” value with A375 melanoma cells (qRT-PCR and IHC staining) is “downregulating”. The “metastasis of xenograft tumors (lung)” value in the assay on B16-F10 cells [3] is “remarkably inhibits”. The tumor growth entry in assay [4] is “inhibits”.
As for `C[n+]1ccc(-c2c3nc(c(-c4cc[n+](C)cc4)c4ccc([nH]4)c(-c4cc[n+](C)cc4)c4ccc([nH]4)c(-c4cc[n+](C)cc4)c4nc2C=C4)C=C3)cc1` [TMPyP4], in the assay on PBX1 dG1, the “luciferase activity of dG1-mut transfected cells” value was “does not affect” and the “luciferase activity of dG1-wt transfected cells” value was “remarkably inhibits”. In addition, in the assay with B16-F10 cells [1], the “cell viability (activity) measured by CCK8” value is reported as “reduce; also recorded: remarkably reduces”. Besides, the migration entry in the assay with A375 cells is reported as “inhibit”. Further, the invasion result in the assay with B16-F10 cells [2] is listed as “inhibit”.
